Experimental data reported in ChEMBL document CHEMBL4483862, “Open-source discovery of chemical leads for next-generation chemoprotective antimalarials” (2018).

Test system: Plasmodium berghei
Assay: Luciferase/luciferin-expressing antifolate-resistant parasites were used to infect a culture of HepG2 cells that were pre-incubated with compounds. Infected hepatocytes emit light due to the luciferase reaction. Assay results are presented as the percent inhibition of light emission compared to control. […]
Assay type: functional
Settings: sporozoite; for IC90: read-out: LUCIFERASE INFECTION ASSAY - IC90

| Compound | IC90 [µM] | also measured |
| --- | --- | --- |
| Fc1ccc(N2CCN(c3nc(CN4CCOCC4)nc4scc(-c5ccccc5)c34)CC2)cc1 | > 10 | IC50 (HEPG2TOX_HILL_SLOPE 0.184, HEPG2TOX_R_SQUARED 0.0625, read-out: LUCIFERASE INFECTION ASSAY - IC50): > 10 µM |
| COc1cc(/C=N/Nc2c(Cl)c(Cl)nc(C(=O)O)c2Cl)cc(OC)c1OC | > 10 | IC50 (HEPG2TOX_HILL_SLOPE 0.214, HEPG2TOX_R_SQUARED 0.0951, read-out: LUCIFERASE INFECTION ASSAY - IC50): > 10 µM |
| CC1(C(=O)Nc2cnc3ccccc3c2)CCN1Cc1ccccc1Cl (configuration not stated) | > 9.02 | IC50 (HEPG2TOX_HILL_SLOPE 0.189, HEPG2TOX_R_SQUARED 0.318, read-out: LUCIFERASE INFECTION ASSAY - IC50): > 9.02 µM |
| CC(=O)c1cccc(-c2cnc3cnc(-c4cccs4)cn23)c1 | 8.52 | IC50 (HEPG2TOX_HILL_SLOPE 0.197, HEPG2TOX_R_SQUARED 0.442, PBLUC_HILL_SLOPE 3.75, PBLUC_R_SQUARED 0.777, read-out: LUCIFERASE INFECTION ASSAY - IC50): 4.74 µM |
| CC(C)c1ccccc1NC(=O)Nc1nc(C(N)C2CCCCC2)cs1 (configuration not stated) | 8 | IC50 (HEPG2TOX_HILL_SLOPE 0.21, HEPG2TOX_R_SQUARED 0.263, PBLUC_HILL_SLOPE 31.8, PBLUC_R_SQUARED 0.686, read-out: LUCIFERASE INFECTION ASSAY - IC50): 7.47 µM |
| CCOC(=O)c1c(S(=O)(=O)Nc2ccc([N+](=O)[O-])cc2)c(-c2ccccc2)n(-c2ccccc2)c1C | > 6.53 | IC50 (HEPG2TOX_HILL_SLOPE 0.2, HEPG2TOX_R_SQUARED 0.0818, PBLUC_HILL_SLOPE 2.97, PBLUC_R_SQUARED 0.542, read-out: LUCIFERASE INFECTION ASSAY - IC50): > 6.53 µM |
| CNc1nc2cnc(Nc3cccc(C(C)C)c3)cc2n1CCOC | > 10 | IC50 (HEPG2TOX_HILL_SLOPE 0.218, HEPG2TOX_R_SQUARED 0.135, read-out: LUCIFERASE INFECTION ASSAY - IC50): > 10 µM |
| CCOC(=O)c1c(C)[nH]c(C(=O)C(C)OC(=O)c2c3c(nc4ccccc24)/C(=C/c2ccc(F)cc2)CCC3)c1C (configuration not stated) | > 10 | IC50 (HEPG2TOX_HILL_SLOPE 0.182, HEPG2TOX_R_SQUARED 0.103, read-out: LUCIFERASE INFECTION ASSAY - IC50): > 10 µM |
| c1ccc(-c2cc3c(NCCCN4CCN(c5ncccn5)CC4)ncnc3s2)cc1 | 4.71 | IC50 (HEPG2TOX_HILL_SLOPE 0.225, HEPG2TOX_R_SQUARED 0.56, PBLUC_HILL_SLOPE 1.89, PBLUC_R_SQUARED 0.636, read-out: LUCIFERASE INFECTION ASSAY - IC50): 1.47 µM |
| Cc1ccccc1-c1cn2c(-c3ccc4ncccc4c3)cnc2cn1 | 0.015 | IC50 (HEPG2TOX_HILL_SLOPE 0.237, HEPG2TOX_R_SQUARED 0.401, PBLUC_HILL_SLOPE 15.7, PBLUC_R_SQUARED 0.693, read-out: LUCIFERASE INFECTION ASSAY - IC50): 0.0131 µM |
| CC(NC(=O)CSc1nnc(-c2cccs2)[nH]1)c1ccc2c(c1)CCCC2 (configuration not stated) | > 10 | IC50 (HEPG2TOX_HILL_SLOPE 0.208, HEPG2TOX_R_SQUARED 0.204, PBLUC_HILL_SLOPE 1.17, PBLUC_R_SQUARED 0.355, read-out: LUCIFERASE INFECTION ASSAY - IC50): 7.84 µM |
| COc1ccccc1-c1ccc2ncc(-c3cccc(C(C)=O)c3)n2n1 | 8.88 | IC50 (HEPG2TOX_HILL_SLOPE 0.183, HEPG2TOX_R_SQUARED 0.285, PBLUC_HILL_SLOPE 2.88, PBLUC_R_SQUARED 0.586, read-out: LUCIFERASE INFECTION ASSAY - IC50): 4.14 µM |
| Cc1cccc(OCCN(C)Cc2cc(=O)n3c([nH]c4ccccc43)c2C#N)c1 | 7.03 | IC50 (HEPG2TOX_HILL_SLOPE 0.204, HEPG2TOX_R_SQUARED 0.162, PBLUC_HILL_SLOPE 2.87, PBLUC_R_SQUARED 0.544, read-out: LUCIFERASE INFECTION ASSAY - IC50): 3.27 µM |
| Cc1ccc(-c2nnc(SCCOc3ccccc3C)nc2-c2ccc(C)cc2)cc1 | > 10 | IC50 (HEPG2TOX_HILL_SLOPE 0.184, HEPG2TOX_R_SQUARED 0.53, PBLUC_HILL_SLOPE 4.7, PBLUC_R_SQUARED 0.148, read-out: LUCIFERASE INFECTION ASSAY - IC50): 8.99 µM |
| CCCC(CNC(=O)COC(=O)c1ccc2[nH]c3c(c2c1)CCCC3)c1ccc(Cl)cc1Cl (configuration not stated) | > 10 | IC50 (HEPG2TOX_HILL_SLOPE 0.187, HEPG2TOX_R_SQUARED 0.0336, read-out: LUCIFERASE INFECTION ASSAY - IC50): > 10 µM |
| O=C(Nc1ccc(Cl)c(S(=O)(=O)N2CCCC2)c1)c1[nH]nc2ccccc12 | > 10 | IC50 (HEPG2TOX_HILL_SLOPE 0.202, HEPG2TOX_R_SQUARED 0.183, PBLUC_HILL_SLOPE 12.1, PBLUC_R_SQUARED 0.78, read-out: LUCIFERASE INFECTION ASSAY - IC50): 9.03 µM |

| Compound | IC90 [µM] | also measured |
| --- | --- | --- |
| CC(C)C(C(=O)Nc1ccc(C#N)cc1)c1ccc(Cl)cc1 (configuration not stated) | > 10 | IC50 (HEPG2TOX_HILL_SLOPE 0.183, HEPG2TOX_R_SQUARED 0.415, read-out: LUCIFERASE INFECTION ASSAY - IC50): > 10 µM |
| CN(Cc1cc(=O)n2c([nH]c3ccccc32)c1C#N)Cc1c(F)cccc1Cl | 6.11 | IC50 (HEPG2TOX_HILL_SLOPE 0.22, HEPG2TOX_R_SQUARED 0.757, PBLUC_HILL_SLOPE 1.9, PBLUC_R_SQUARED 0.518, read-out: LUCIFERASE INFECTION ASSAY - IC50): 1.92 µM |
| N#Cc1ccc(-c2cnc3cnc(-c4ccc(CNc5ccccc5)cc4)cn23)cc1 | 6.67 | IC50 (HEPG2TOX_HILL_SLOPE 0.183, HEPG2TOX_R_SQUARED 0.0935, PBLUC_HILL_SLOPE 1.81, PBLUC_R_SQUARED 0.744, read-out: LUCIFERASE INFECTION ASSAY - IC50): 1.98 µM |
| Cc1c(O)ccc2c(CNc3ccc(C(C)(C)C)cc3)cc(=O)oc12 | > 10 | IC50 (HEPG2TOX_HILL_SLOPE 0.191, HEPG2TOX_R_SQUARED 0.186, PBLUC_HILL_SLOPE 2.86, PBLUC_R_SQUARED 0.292, read-out: LUCIFERASE INFECTION ASSAY - IC50): 4.84 µM |
| CCCC/N=C1\SCC(c2c[nH]c3ccccc23)=NN1C | > 10 | IC50 (HEPG2TOX_HILL_SLOPE 0.211, HEPG2TOX_R_SQUARED 0.832, read-out: LUCIFERASE INFECTION ASSAY - IC50): > 10 µM |
| Cc1nc(CSc2nc3c(c(-c4ccccc4)c2C#N)C(=O)CC(C)(C)C3)cs1 | > 10 | IC50 (HEPG2TOX_HILL_SLOPE 0.218, HEPG2TOX_R_SQUARED 0.218, PBLUC_HILL_SLOPE 7.94, PBLUC_R_SQUARED 0.255, read-out: LUCIFERASE INFECTION ASSAY - IC50): 9.59 µM |
| Cc1nc(-c2ccc(CCNc3ncnc4sccc34)cc2)cs1 | > 10 | IC50 (HEPG2TOX_HILL_SLOPE 0.209, HEPG2TOX_R_SQUARED 0.388, PBLUC_HILL_SLOPE 0.293, PBLUC_R_SQUARED 0.513, read-out: LUCIFERASE INFECTION ASSAY - IC50): 0.0119 µM |
| CCN(c1ccccc1)S(=O)(=O)c1ccc(Sc2ccc(C)cc2C)nc1 | > 10 | IC50 (HEPG2TOX_HILL_SLOPE 0.198, HEPG2TOX_R_SQUARED 0.716, PBLUC_HILL_SLOPE 11.9, PBLUC_R_SQUARED 0.0318, read-out: LUCIFERASE INFECTION ASSAY - IC50): 9.38 µM |
| Cc1cc(/C=C(\C#N)c2nnc(N3CCOCC3)n2-c2ccccc2)c(C)n1-c1cccc(C(F)(F)F)c1 | > 10 | IC50 (HEPG2TOX_HILL_SLOPE 0.204, HEPG2TOX_R_SQUARED 0.0193, PBLUC_HILL_SLOPE 1.7, PBLUC_R_SQUARED 0.432, read-out: LUCIFERASE INFECTION ASSAY - IC50): > 10 µM |
| CC(C)(C)c1ccc(-c2cnc3cnc(-c4ccncc4)cn23)cc1 | 4.79 | IC50 (HEPG2TOX_HILL_SLOPE 0.197, HEPG2TOX_R_SQUARED 0.782, PBLUC_HILL_SLOPE 7.81, PBLUC_R_SQUARED 0.726, read-out: LUCIFERASE INFECTION ASSAY - IC50): 3.62 µM |
| CCC(C)c1ccc(NC(=O)/C(C#N)=C/c2cc3c(cc2[N+](=O)[O-])OCO3)cc1 (configuration not stated) | > 10 | IC50 (HEPG2TOX_HILL_SLOPE 0.229, HEPG2TOX_R_SQUARED 0.341, PBLUC_HILL_SLOPE 0.634, PBLUC_R_SQUARED 0.752, read-out: LUCIFERASE INFECTION ASSAY - IC50): 2.46 µM |
| O=C(Nc1nc(-c2ccc[nH]2)cs1)c1cccc(Br)c1 | > 10 | IC50 (HEPG2TOX_HILL_SLOPE 0.199, HEPG2TOX_R_SQUARED 0.479, read-out: LUCIFERASE INFECTION ASSAY - IC50): > 10 µM |
| COc1ccc(CN2C(=O)N(CC(C)C)C3(CCN(Cc4ccc5c(c4)CCO5)CC3)C2=O)cc1 | > 6.91 | IC50 (HEPG2TOX_HILL_SLOPE 0.211, HEPG2TOX_R_SQUARED 0.0109, PBLUC_HILL_SLOPE 2.27, PBLUC_R_SQUARED 0.453, read-out: LUCIFERASE INFECTION ASSAY - IC50): 3.57 µM |
| Cc1c(S(=O)(=O)c2ccc(Cl)cc2)csc1NC(=O)Nc1cc(C2CC2)n[nH]1 | > 7.55 | IC50 (HEPG2TOX_HILL_SLOPE 0.224, HEPG2TOX_R_SQUARED 0.199, PBLUC_HILL_SLOPE 2.99, PBLUC_R_SQUARED 0.447, read-out: LUCIFERASE INFECTION ASSAY - IC50): 4.79 µM |
| O=C(NC1CC1)c1ccc(-c2cnc3cnc(/C=C/c4ccccc4)cn23)cc1 | > 8.67 | IC50 (HEPG2TOX_HILL_SLOPE 0.214, HEPG2TOX_R_SQUARED 0.714, PBLUC_HILL_SLOPE 0.95, PBLUC_R_SQUARED 0.815, read-out: LUCIFERASE INFECTION ASSAY - IC50): 1.05 µM |
